# Measured values from paper PMC9658052, “Virtual Screening and Biological Activity Evaluation of New Potent Inhibitors Targeting Hexokinase-II” (Molecules, 2022).
# Read-outs that look alike come from different tables or passages of the source.
# Tests used:
# [1] = set-up: method as in PMID 20215500, PMID 16044218; details: mice, dose range from 500 mg/Kg to 2000 mg/Kg; cited from earlier work
# HK-II = details: cited from earlier work
# A549 cells = test: MTT cytotoxicity assay, A549; type: cell-based; details: Homo sapiens, 48 h, read-out: IC50 (toxicity) A549
# Method: (§1) Initially, we adopted the MTT assay to screen the cytotoxicity of all compounds toward three different types of cancer cell lines (HeLa, HepG 2 and A549). […] The chemical structures of the selected compounds are depicted in Figure 2.
# (§2) HeLa, Hep G2, and A549 cells were purchased from the Shanghai Institute of Biochemistry and Cell Biology, Chinese Academy of Sciences. All cells were cultured in DMEM with 100 units/mL penicillin/streptomycin, 2 mM glutamine, and 10% FBS in a carbon dioxide atmosphere at 37 °C.
# (§3) Cytotoxicity was quantified using a standard MTT assay, which is widely used in evaluating cell proliferation and screening for anticancer drugs. Briefly, following 7 × 10^3 cells incubating in 96-well plates for 48 h filled with DMEM medium supplemented with 10% fetal bovine serum (FBS) containing different concentrations of samples, 10 μL/well of MTT (5 mg/mL) was added. After 4 h of incubation at 37 °C, 100 μL of extraction buffer containing 5% iso-butanol, 0.1% HCl, and 10% SDS was added, and then the cells were incubated overnight. As controls, cells were treated with 0.1% (v/v) DMSO alone. The cell viability was calculated by the absorbance (570 nm) of each well obtained using a microplate reader (Thermo Scientific Multiskan GO, Vantaa, Finland).
# HepG 2 cells = test: MTT cytotoxicity assay, HepG 2; type: cell-based; details: Homo sapiens, HepG2, 48 h, read-out: IC50 (toxicity) HepG 2
# Method: as §1, §2, §3
# HeLa cells = test: MTT cytotoxicity assay, HeLa; type: cell-based; details: Homo sapiens, 48 h, read-out: IC50 (toxicity) Hela
# Method: as §1, §2, §3
# Hexokinase-II enzyme = target: T1, Hexokinase-II enzyme (Homo sapiens, UniProt P52789); test: Hexokinase-II inhibitor screening kit (enzyme activity); type: biochemical; details: compound 1 to 128 μM
# T1 construct: purchased Abcam ab211114
# T1 sequence (P52789 1-917): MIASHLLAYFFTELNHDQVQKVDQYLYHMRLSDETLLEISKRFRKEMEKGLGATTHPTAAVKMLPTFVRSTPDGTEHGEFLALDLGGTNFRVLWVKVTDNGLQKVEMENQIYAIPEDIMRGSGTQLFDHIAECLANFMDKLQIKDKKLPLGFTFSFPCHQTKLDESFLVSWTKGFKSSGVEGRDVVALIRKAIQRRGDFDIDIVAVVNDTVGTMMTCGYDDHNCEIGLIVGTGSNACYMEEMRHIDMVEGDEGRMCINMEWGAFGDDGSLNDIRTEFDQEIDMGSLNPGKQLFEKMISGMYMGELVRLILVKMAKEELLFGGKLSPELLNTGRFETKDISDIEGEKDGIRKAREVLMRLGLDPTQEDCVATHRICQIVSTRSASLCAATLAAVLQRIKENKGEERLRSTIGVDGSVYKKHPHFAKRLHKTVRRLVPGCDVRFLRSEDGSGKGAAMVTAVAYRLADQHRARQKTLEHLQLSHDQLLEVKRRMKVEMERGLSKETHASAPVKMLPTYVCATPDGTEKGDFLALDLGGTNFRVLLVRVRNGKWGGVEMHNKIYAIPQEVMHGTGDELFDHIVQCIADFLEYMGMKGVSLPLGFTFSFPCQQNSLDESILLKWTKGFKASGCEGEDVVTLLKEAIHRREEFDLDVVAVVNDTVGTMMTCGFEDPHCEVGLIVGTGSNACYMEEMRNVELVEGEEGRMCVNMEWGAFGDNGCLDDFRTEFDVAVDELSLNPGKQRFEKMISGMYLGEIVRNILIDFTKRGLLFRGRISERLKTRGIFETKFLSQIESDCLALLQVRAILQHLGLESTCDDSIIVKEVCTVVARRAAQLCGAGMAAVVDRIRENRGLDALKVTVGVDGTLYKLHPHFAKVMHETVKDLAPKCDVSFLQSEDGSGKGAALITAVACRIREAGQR
# Method: Since nine compounds display the highest cytotoxicity to three different cancer cells, we then verified the effects of the compounds on Hexokinase-II activity.
# Figure 3 Inhibition of compounds 4244-3659 and K611-0094 on Hexokinase-II activity. […] All data were expressed as mean ± SE from three independent experiments. ** p < 0.01 vs. the control groups.
# The Hexokinase-II activity was tested via a Hexokinase-II inhibitor screening kit (Abcam, Cambridge, UK, ab211114), and all experiments were carried out following the manufacturer’s instructions. […] HK assay buffer was treated as negative control, bromopyruvic acid was used for positive controls, and DMSO was used as a solvent control. The value of OD at 450 nm at 15 min and 25 min was recorded. IC50 values were calculated in GraphPad Prism 5.
# [2] = 5 min at 25 °C preincubation, read-out: EC50, inhibitory effect on HK-II enzyme activity
# [3] = read-out: IC50 on Hexokinase-II enzyme
Molecule,IC50 (A549 cells) [µM],IC50 (HepG 2 cells) [µM],IC50 (HeLa cells) [µM],IC50 (Hexokinase-II enzyme; [2]) [µM],also measured
"O=CC[C@@H](O)[C@H](O)[C@H](O)CO [2-Deoxyglucose (2-DG), 2-Deoxyglucose]",,,,,therapeutic effect of a single agent [1]: no significant therapeutic effect
"O=C(O)C(=O)CBr [3-Bromopyruvate (3-BrPA), 3-Bromopyruvate]",,,,,inhibitory action against HK-II (HK-II): moderate inhibitory action
CN1C(=O)[C@](O)(CC(=O)c2cc(O)ccc2O)c2ccccc21 [4244-3659],54.6 ± 2.6,62.5 ± 2.1,62.1 ± 2,17.5 ± 1.4,IC50 (Hexokinase-II enzyme; [3]): 17.5 ± 1.4 µM
CCOC(=O)c1c(C)n(C)c2ccc(OC[C@H](O)CN[C@H](CC)CO)cc12 [6913-0012],62.6 ± 0.7,59 ± 0.2,51.9 ± 1.5,,
O=C(N/N=C/c1ccc(Cl)c(Cl)c1)c1cc(O)c(O)c(O)c1 [AK-968/41922716],31,40 ± 0.2,28.5 ± 1.9,,
O[C@H](CNCc1ccccc1)COc1cccc2ccccc12 [AO-423/13128074],38.6 ± 0.8,30 ± 1.4,27.7 ± 0.6,> 128,
Cc1ccc(C(C)C)c(OC[C@H](O)CNCc2ccccc2)c1 [AP-124/43383769],36.5 ± 0.4,23.3,25.1 ± 0.9,104 ± 1.1,
CC(=O)c1c(C)[nH]c2ccc(OC[C@@H](O)CNCCc3ccccc3)cc12 [D016-0099],50.4 ± 0.3,44.2 ± 0.6,48.5 ± 1.2,,
O=C(CSc1nc2c(sc3ccccc32)c(=O)n1Cc1cccnc1)Nc1ccc(O)c(O)c1 [K263-0793],27.1 ± 1.4,22.1 ± 0.9,22.4 ± 1.4,> 128,
Nc1nc(SCC(=O)Nc2cccc([N+](=O)[O-])c2)sc1C(=O)Nc1nccs1 [K611-0094],48.8 ± 1.2,57.9 ± 1.7,47.8 ± 0.6,45 ± 1.1,IC50 (Hexokinase-II enzyme; [3]): 45 ± 1.1 µM
CN(C)C(=N)N=C(N)N [metformin],,,,,"IC50 (HK-II; weak inhibitory effect, read-out: IC50 against HK-II): > 10000 µM"
"€-4-Nitro-N′-(2,3,4-trihydroxybenzylidene)",,,,,IC50 (HK-II; read-out: enzyme activity (HK2 inhibitor)): 0.53 ± 0.13 µM
